{
  "source": "patent US20100254940A1",
  "about": "“Compositions and Methods for Regulating an Immune Response in a Subject” (INNATE PHARMA, S.A., priority 2002, published 2010)",
  "key": {"[1]": {"test": "Vital parameters, haematology and serum clinical chemistry follow up in cynomolgus monkeys (non-GLP studies)", "assay_type": "in vivo, cynomolgus monkeys (M. fascicularis)", "description": "Classical blood parameters follow-up (red blood cell, platelets total and differential white blood cells counts, haemoglobin, mean corpuscular haemoglobin, mean corpuscular haemoglobin concentration) were performed at the sites of monkey handling, just before and after each administration and twice weekly.\nOn all animals in group 2, 48 or 72 hours after each injection, 16 blood chemistry parameters were measured (sodium, potassium, chloride, calcium, inorganic phosphorus, glucose, urea, total cholesterol, total bilirubin, total protein, albumin, globulin, creatinin, alkaline phosphatase, aspartate aminotransferase and […] aminotransferase).\nThe animals were observed daily and during and after each injection for any change in vital and clinical parameters (general behaviour, skin, hair, respiratory system, central nervous system). Animals were regularly weighed, every 3 days (group 1) or weekly (group 2). Body temperature (on vigil animals of group 2) was measured before and at the end of each BrHPP/IL2 (or IL2 alone) infusion and once daily during the 5 days following administration. Heart rate and blood pressure were recorded for all animals in group 2, before and at the end of each administration."}, "γδ T cell [2]": {"test_system": "γδ T cell", "test": "γδ T cell amplification from human PBMCs, counting γδ T cell using flow cytometry (given as in vivo EC50)", "assay_type": "cell-based", "details": "γδ T cell amplification from human PBMCs, flow cytometry count", "description": "The biological activity of γδ T cell amplification from human PBMCs was assessed by counting γδ T cell using flow cytometry.\nIn vitro proliferation assays and in vitro TNFα release assay are performed essentially as described in Example 3."}, "Vγ9Vδ2 T cells": {"test_system": "Vγ9Vδ2 T cells", "test": "Phosphostim (BrHPP) i.v. pharmaco-dynamic GLP study in cynomolgus monkeys", "assay_type": "in vivo", "description": "The objective of this GLP study was to explore further the pharmaco-dynamic properties of Phosphostim (BrHPP, 200 mg; GMP batch) alone and in combination with IL-2 following several i.v. administrations to cynomolgus monkeys. In particular, this study was planned to evaluate: • A dose-effect relationship between Phosphostim injection and γδ T cell peripheral amplification; • The pharmaco-dynamic effect of a second, third and up to fifth administration of Phosphostim in male and female animals; • The functionality of in vivo induced γδ T cells, by dosing systemic cytokines after Phosphostim treatment; • The effect of treatment with IL-2 alone and to validate the selected dose of 0.6 million IU/day/animal.\nPhosphostim was administered i.v., as slow infusions (50 ml in 30 minutes), at various dose levels to five groups of two animals (one male+one female). Males received two successive injections of BrHPP (Day 0 and Day 22) before sacrifice and females four injections (Days 0, 22, 52 and 84). Two females, selected upon their level of response to the 4th treatment, received a supplementary injection of BrHPP alone at Day 91, during γδ cell peripheral increase, for systemic cytokine dosages.\nThe administration schedule of the test product can be summarized as follows in Table 1:\nThe dose levels in Table 1 are can be converted to BrHPP pure (anionic) form equivalent by multiplying each dose by 0.6. Thus, the doses of 0.2, 4, 20, 50, 80, 120 and 160 mg/kg in Table 1 are equivalent respectively to 0.12, 2.4, 12, 30, 48, 72 and 96 mg/kg of anionic form BrHPP. • IL-2 was administered s.c. at the following frequency: from Day 0 to Day 6 and from Day 22 to Day 28 for all animals; from Day 52 to 58 and from Day 84 to Day 90 for all the females. IL-2 was administered as two separate s.c. injections approximately 8 hours apart of 0.3 million IU, corresponding to 0.6 million IU/day/animal."}, "γδ T cell [3]": {"test_system": "γδ T cell", "test": "In vitro TNFα release assay, γδ T cell amplification from human PBMCs (in the presence of rhIL2)", "assay_type": "cell-based", "details": "TNFα release assay; human PBMCs, rhIL2", "description": "The in vitro biological activity of γδ T cell amplification from human PBMCs (in the presence of rhIL2) was assessed using a TNFα release assay.\nCytokine secretion and cytolytic activity can be assessed using any appropriate in vitro assay, or those provided in the examples herein. For example, cytokine secretion can be determined according to the methods described in Espinosa et al. (J. Biol. Chem., 2001, Vol. 276, Issue 21, 18337-18344), describing measurement of TNF-α release in a bioassay using TNF-α-sensitive cells. Briefly, 10^4 γδT cells/well were incubated with stimulus plus 25 units of IL2/well in 100 μl of culture medium during 24 h at 37° C. Then, 50 μl of supernatant were added to 50 μl of WEHI cells plated at 3×10^4 cells/well in culture medium plus actinomycin D (2 μg/ml) and LiCl (40 mM) and incubated for 20 h at 37° C. Viability of the TNF-α-sensitive cells and measured with a 3-(4,5-dimethylthiazol-2-yl)-2,5-diphenyltetrazolium bromide assay. 50 μl of 3-(4,5-dimethylthiazol-2-yl)-2,5-diphenyltetrazolium bromide (Sigma; 2.5 mg/ml in phosphate-buffered saline) per well were added, and after 4 h of incubation at 37° C., 50 μl of solubilization buffer (20% SDS, 66% dimethyl formamide, pH 4.7) were added, and absorbance (570 nm) was measured. Levels of TNF-α release were then calculated from a standard curve obtained using purified human rTNF-α (PeproTech, Inc., Rocky Hill, N.J.). Interferon-γ released by activated T cells was measured by a sandwich enzyme-linked immunosorbent assay. 5×10^4 γδT cells/well were incubated with stimulus plus 25 units of IL2/well in 100 μl of culture medium during 24 h at 37° C. Then, 50 μl of supernatant were harvested for enzyme-linked immunosorbent assay using mouse monoclonal antibodies (BIOSOURCE, Camarillo, Calif.). […]\nBrHPP and HDMAPP bioactivity were compared using in vitro and in vivo assays. The in vitro biological activity of γδ T cell amplification from human PBMCs (in the presence of rhIL2) was assessed using a TNFα release assay."}, "Vg9Vd2 cells": {"test_system": "Vg9Vd2 cells", "test": "EC50 of BrHPP for triggering Vg9Vd2 cells", "assay_type": "cell-based", "description": "(§1) In vitro, we and others (Lang, 1995) have shown that the activation of Vg9Vd2 cells occurs within minutes after the addition of the molecule. Two mechanisms may prevent the molecule to be active in vivo i) the likely rapid renal clearance of such a small molecule and ii) a degradation process in vivo. […] Nevertheless, the concentration of the molecule, injected by intravenous route in relatively high amount, should be maintained beyond the 20 nM EC50 for a significant time, if no additional, blood cell or organ related degradation process occurs in vivo."}, "[4]": {"test": "Half life of the molecule in primate sera", "assay_type": "in vitro ADME", "details": "37° C.", "description": "as §1"}},
  "data": [
    {"substance": "3-(bromomethyl)-3-butanol-1-yl-diphosphate [BrHPP]", "values": [
      {"measurement": "clinical or blood chemical parameters", "setting": "[1]; BrHPP alone or in association with IL2", "value": "No alteration of clinical or blood chemical parameters"},
      {"measurement": "rectal temperature", "setting": "[1]; any animal treated", "value": "not significantly affected"},
      {"measurement": "toxicity as assessed by vital signs or rectal temperature", "setting": "[1]; five daily injection of 0.2 mg/kg BrHPP alone", "value": "did not result in any toxicity"},
      {"measurement": "toxicity, fever", "setting": "[1]; four daily injections 1, 4, 16, 32 mg/kg BrHPP alone", "value": "no toxicity nor fever was observed"},
      {"measurement": "lymphocytes", "setting": "[1]; highest dose of BrHPP, at peak of Vg9Vd2 in the periphery", "value": "a lymphocytosis was observed"},
      {"measurement": "EC50", "setting": "γδ T cell [2]", "value": "~1", "unit": "nM"},
      {"measurement": "γδ cell number increase", "setting": "Vγ9Vδ2 T cells; 20 mg/kg (12 mg/kg anionic form) + IL-2", "value": 20, "unit": "fold"},
      {"measurement": "increase in circulating γδ cell count", "setting": "Vγ9Vδ2 T cells; at around 120 mg/kg (EC50) + IL-2", "value": 100, "unit": "fold"},
      {"measurement": "circulating Vγ9Vδ2 T cells vs before treatment", "setting": "Vγ9Vδ2 T cells; highest tested dose + IL-2", "value": 200, "unit": "fold"},
      {"measurement": "share of circulating Vγ9Vδ2 T cells in peripheral lymphocytes", "setting": "Vγ9Vδ2 T cells; highest tested dose + IL-2", "value": "represented the majority of peripheral lymphocytes"},
      {"measurement": "estimated EC50 value in vivo, anionic form BrHPP", "setting": "Vγ9Vδ2 T cells; i.v. + IL-2", "value": "~72", "unit": "mg/kg"},
      {"measurement": "estimated EC50 value of BrHPP in vivo", "setting": "Vγ9Vδ2 T cells; i.v. + IL-2", "value": "around 120 mg/kg"},
      {"measurement": "first slightly efficient tested dose", "setting": "Vγ9Vδ2 T cells; i.v. + IL-2, Day 7", "value": 4, "unit": "mg/kg"},
      {"measurement": "first slightly efficient tested dose, anionic form BrHPP", "setting": "Vγ9Vδ2 T cells; i.v. + IL-2, Day 7", "value": 2.4, "unit": "mg/kg"},
      {"measurement": "EC50", "setting": "γδ T cell [3]", "value": "~30", "unit": "nM"},
      {"measurement": "EC50", "setting": "Vg9Vd2 cells", "value": 20, "unit": "nM"},
      {"measurement": "half life of the molecule in primate sera", "setting": "[4]", "value": "about one"}
    ]}
  ]
}
